Source: US6992079B2, “Substituted 11-phenyl-dibenzazepine compounds useful for the treatment or prevention of diseases characterized by abnormal cell proliferation” (President Fellows of Harvard College, priority 1997, dated 2006)
Marks after values point to notes of the source that are not given here.

Tests used:
786-0 = test: In-Vitro Testing SRB panel: Renal Cancer; assay type: cell-based; settings: 786-0
[1] = Preliminary toxicology, subcutaneous injection for 14 days; assay type: in vivo, CD-1 female mice; settings: CD-1 female mice; 80 mg/kg/day s.c. 14 days
Procedure: The toxicological effects of CLT, and compounds 28, 30 and 31 were tested in CD-1 female mice. A dose of 80 mg/kg/day was given to each mouse via subcutaneous injection for a period of 14 days. Preliminary toxicological data was determined by measuring body weight, gross pathology of organs blood chemistry and histology. The vehicle used was DMF 12%+2% Tween 20 88%.

T-47D = test: In-Vitro Testing SRB panel: Breast Cancer; assay type: cell-based
CCRF-CEM = test: In-Vitro Testing SRB panel: Leukemia; assay type: cell-based
SNB-75 = test: In-Vitro Testing SRB panel: CNS Cancer; assay type: cell-based; settings: SNB-75
KM12 = test: In-Vitro Testing SRB panel: Colon Cancer; assay type: cell-based; settings: KM12
[2] = tested on: H460 large cell lung carcinoma; test: Mouse xenograft tumor growth; assay type: in vivo, CD-1 nude mice
ACHN = test: In-Vitro Testing SRB panel: Renal Cancer; assay type: cell-based
SF-295 = test: In-Vitro Testing SRB panel: CNS Cancer; assay type: cell-based; settings: SF-295
[3] = tested on: A2058 metastatic melanoma; test: Mouse xenograft tumor growth; assay type: in vivo, CD-1 nude mice
Procedure: NCI-A2058 human melanoma cell line was grown as monolayer culture in Minimum essential medium (D-MEM) supplemented with 10% fetal bovine serum (FBS), 0.1 mM non-essential amino acid, 1.0 mM sodium pyruvate, 100U/ml penicillin, 100 μg/ml streptomycin and 0.25 μg/ml amphotericin B and L-alanyl-1-glutamine (2 mM) at 37° C. in an atmosphere of 5% CO2 in air. The tumor cells were routinely subcultured twice weekly by trypsin-EDTA treatment. The cells were harvested from subconfluent logarithmically growing culture by treatment with typsin-EDTA and counted for tumor inoculation.
An acclimation period of at least 7 days were allowed between animal receipt and commence of tumor inoculation. When the female CD-1 nude mice were more than 6-7 weeks of age (20-25 g), each mouse was subcutaneously injected with 5.0×10^6 NCI-A2058 human melanoma cells in 0.1 ml of PBS solution at the right flank of the mice to induce tumor growth.

SK-MEL-5 = test: In-Vitro Testing SRB panel: Melanoma; assay type: cell-based; settings: SK-MEL-5
HCT-116 = test: In-Vitro Testing SRB panel: Colon Cancer; assay type: cell-based; settings: HCT-116
SF-268 = test: In-Vitro Testing SRB panel: CNS Cancer; assay type: cell-based; settings: SF-268
OVCAR-8 = test: In-Vitro Testing SRB panel: Ovarian Cancer; assay type: cell-based; settings: OVCAR-8
RXF 393 = test: In-Vitro Testing SRB panel: Renal Cancer; assay type: cell-based; settings: RXF 393
MOLT-4 = test: In-Vitro Testing SRB panel: Leukemia; assay type: cell-based; settings: MOLT-4
[4] = Homo sapiens, read-out: LC50 (the source's name)

Compound: COc1cccc2c1C(c1ccccc1Cl)c1cc(Cl)ccc1N(C(=O)c1ccc([N+](=O)[O-])cc1)C2 (stereo not drawn) [Compound 31]
- TGI (786-0): >1.00E−04 Molar
- Percent Growth (786-0; log10 conc -4 Molar): 14%
- Percent Growth (786-0; log10 conc -5 Molar): 26%
- Percent Growth (786-0; log10 conc -6 Molar): 54%
- Percent Growth (786-0; log10 conc -7 Molar): 91%
- Percent Growth (786-0; log10 conc -8 Molar): 95%
- GI50 (786-0; Homo sapiens): 1.35 µM
- CC50 (786-0; [4]): > 100 µM
- Body Weight Change [1]: 113%
- Liver Weight [1]: 1.49 ± 0.04^c g
- RBC [1]: 8.6 ± 1.6 10^6/mm^3
- WBC [1]: 7.2 ± 1.7 10^3/mm^3
- WBC, RBC, BUN and creatine levels [1]: no differences were found
- GI50 (T-47D; Homo sapiens, T47D): 2.97 µM
- CC50 (T-47D; Homo sapiens, T47D, T-47D, read-out: LC50 (the source's name)): > 100 µM
- TGI (T-47D; T-47D): >1.00E−04 Molar
- Percent Growth (T-47D; T-47D, log10 conc -4 Molar): 27%
- Percent Growth (T-47D; T-47D, log10 conc -5 Molar): 34%
- Percent Growth (T-47D; T-47D, log10 conc -6 Molar): 65%
- Percent Growth (T-47D; T-47D, log10 conc -7 Molar): 90%
- Percent Growth (T-47D; T-47D, log10 conc -8 Molar): 92%
- TGI (CCRF-CEM): >1.00E−04 Molar
- GI50 (CCRF-CEM; Homo sapiens): 1.53 µM
- CC50 (CCRF-CEM; [4]): > 100 µM
- Percent Growth (CCRF-CEM; log10 conc -4 Molar): 2%
- Percent Growth (CCRF-CEM; log10 conc -5 Molar): 21%
- Percent Growth (CCRF-CEM; log10 conc -6 Molar): 56%
- Percent Growth (CCRF-CEM; log10 conc -7 Molar): 94%
- Percent Growth (CCRF-CEM; log10 conc -8 Molar): 111%
- GI50 (SNB-75; Homo sapiens): 5.9 µM
- CC50 (SNB-75; [4]): > 100 µM
- TGI (SNB-75): 6.40E−05 Molar
- Percent Growth (SNB-75; log10 conc -4 Molar): −11%
- Percent Growth (SNB-75; log10 conc -5 Molar): 44%
- Percent Growth (SNB-75; log10 conc -6 Molar): 82%
- Percent Growth (SNB-75; log10 conc -7 Molar): 100%
- Percent Growth (SNB-75; log10 conc -8 Molar): 103%
- GI50 (KM12; Homo sapiens): 0.519 µM
- CC50 (KM12; [4]): > 100 µM
- TGI (KM12): >1.00E−04 Molar
- Percent Growth (KM12; log10 conc -4 Molar): 20%
- Percent Growth (KM12; log10 conc -5 Molar): 32%
- Percent Growth (KM12; log10 conc -6 Molar): 38%
- Percent Growth (KM12; log10 conc -7 Molar): 80%
- Percent Growth (KM12; log10 conc -8 Molar): 99%
- tumor growth [2]: showed inhibition of tumor growth
- TGI (ACHN): >1.00E−04 Molar
- GI50 (ACHN; Homo sapiens): 0.803 µM
- CC50 (ACHN; [4]): > 100 µM
- Percent Growth (ACHN; log10 conc -4 Molar): 8%
- Percent Growth (ACHN; log10 conc -5 Molar): 26%
- Percent Growth (ACHN; log10 conc -6 Molar): 45%
- Percent Growth (ACHN; log10 conc -7 Molar): 95%
- Percent Growth (ACHN; log10 conc -8 Molar): 92%
- GI50 (SF-295; Homo sapiens): 13.5 µM
- CC50 (SF-295; [4]): > 100 µM
- TGI (SF-295): >1.00E−04 Molar
- Percent Growth (SF-295; log10 conc -4 Molar): 34%
- Percent Growth (SF-295; log10 conc -5 Molar): 52%
- Percent Growth (SF-295; log10 conc -6 Molar): 75%
- Percent Growth (SF-295; log10 conc -7 Molar): 98%
- Percent Growth (SF-295; log10 conc -8 Molar): 97%
- tumor growth [3]: showed inhibition of tumor growth
- GI50 (SK-MEL-5; Homo sapiens): 0.597 µM
- CC50 (SK-MEL-5; [4]): > 100 µM
- TGI (SK-MEL-5): >1.00E−04 Molar
- Percent Growth (SK-MEL-5; log10 conc -4 Molar): 17%
- Percent Growth (SK-MEL-5; log10 conc -5 Molar): 27%
- Percent Growth (SK-MEL-5; log10 conc -6 Molar): 41%
- Percent Growth (SK-MEL-5; log10 conc -7 Molar): 81%
- Percent Growth (SK-MEL-5; log10 conc -8 Molar): 94%
- TGI (HCT-116): 1.00E−04 Molar
- Percent Growth (HCT-116; log10 conc -4 Molar): 12%
- Percent Growth (HCT-116; log10 conc -5 Molar): 17%
- Percent Growth (HCT-116; log10 conc -6 Molar): 32%
- Percent Growth (HCT-116; log10 conc -7 Molar): 92%
- Percent Growth (HCT-116; log10 conc -8 Molar): 100%
- GI50 (HCT-116; Homo sapiens): 0.502 µM
- CC50 (HCT-116; [4]): > 100 µM
- GI50 (SF-268; Homo sapiens): 5.28 µM
- CC50 (SF-268; [4]): > 100 µM
- TGI (SF-268): >1.00E−04 Molar
- Percent Growth (SF-268; log10 conc -4 Molar): 46%
- Percent Growth (SF-268; log10 conc -5 Molar): 47%
- Percent Growth (SF-268; log10 conc -6 Molar): 59%
- Percent Growth (SF-268; log10 conc -7 Molar): 105%
- Percent Growth (SF-268; log10 conc -8 Molar): 94%
- GI50 (OVCAR-8; Homo sapiens): 5.3 µM
- CC50 (OVCAR-8; [4]): > 100 µM
- TGI (OVCAR-8): >1.00E−04 Molar
- Percent Growth (OVCAR-8; log10 conc -4 Molar): 29%
- Percent Growth (OVCAR-8; log10 conc -5 Molar): 38%
- Percent Growth (OVCAR-8; log10 conc -6 Molar): 82%
- Percent Growth (OVCAR-8; log10 conc -7 Molar): 94%
- Percent Growth (OVCAR-8; log10 conc -8 Molar): 99%
- GI50 (RXF 393; Homo sapiens): 13.1 µM
- CC50 (RXF 393; [4]): > 100 µM
- TGI (RXF 393): >1.00E−04 Molar
- Percent Growth (RXF 393; log10 conc -4 Molar): 39%
- Percent Growth (RXF 393; log10 conc -5 Molar): 52%
- Percent Growth (RXF 393; log10 conc -6 Molar): 81%
- Percent Growth (RXF 393; log10 conc -7 Molar): 96%
- Percent Growth (RXF 393; log10 conc -8 Molar): 96%
- GI50 (MOLT-4; Homo sapiens): 0.336 µM
- CC50 (MOLT-4; [4]): > 100 µM
- TGI (MOLT-4): >1.00E−04 Molar
- Percent Growth (MOLT-4; log10 conc -4 Molar): 6%
- Percent Growth (MOLT-4; log10 conc -5 Molar): 14%
- Percent Growth (MOLT-4; log10 conc -6 Molar): 24%
- Percent Growth (MOLT-4; log10 conc -7 Molar): 79%
- Percent Growth (MOLT-4; log10 conc -8 Molar): 95%
